This experiment has as its system MX-1 breast xenograft, nude mice, tumor weight T/C. Briefly: NCI In Vivo Anticancer Drug Screen. Data for tumor model Human Mammary Carcinoma MX-1 Xenograft (intrarenal inoculation) in NU/NU Swiss (nude) mice. As to conditions: endpoint: mean tumor weight change, higher = larger tumour. A digest of the protocol: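 Antitumour effect measured in vivo against vehicle controls, expressed as T/C.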
A general note: In xenograft studies the graft and the host belong to different species.

Setting [1] is: dose: 150.0 mg/kg/injection, schedule: Q04DX003 (sc), vehicle: saline.
The mark [2] stands for this setting: dose: 300.0 mg/kg/injection, schedule: Q04DX003 (sc), vehicle: saline.
Setting [3] is: dose: 300.0 mg/kg/injection, schedule: Q04DX003 (sc), vehicle: saline with Tween-80.
The mark [4] stands for this setting: dose: 600.0 mg/kg/injection, schedule: Q04DX003 (sc), vehicle: saline with Tween-80.
[5] abbreviates: dose: 100.0 mg/kg/injection, schedule: Q04DX003 (sc), vehicle: saline with Tween-80.
The mark [6] stands for this setting: dose: 200.0 mg/kg/injection, schedule: Q04DX003 (sc), vehicle: saline with Tween-80.
Where [7] appears, read: dose: 150.0 mg/kg/injection, schedule: Q04DX003 (sc), vehicle: saline with Tween-80.
[8] abbreviates: dose: 1200.0 mg/kg/injection, schedule: Q04DX003 (sc), vehicle: saline with Tween-80.

“And” between values parts separate entries of the source, which are not always exact repeats. Identical values can stand only once. Inconclusive results are not listed.

This passage reports T/C results from PubChem BioAssay AID296 (DTP/NCI, 2004).

For `CC(=O)/C(=C\c1ccc(Cl)c(Cl)c1)C(=O)CCN(C)C`, the T/C by setting is: (dose: 25.0 mg/kg/injection, schedule: Q04DX003 (ip), vehicle: saline) 166 % of control; (dose: 50.0 mg/kg/injection, schedule: Q04DX003 (ip), vehicle: saline) 98 % of control; (dose: 100.0 mg/kg/injection, schedule: Q04DX003 (ip), vehicle: saline) 83 % of control.

For `O=C1C(O)=C(c2ccccc2)C(=O)C(O)=C1c1ccccc1`, the T/C is 118 % of control (dose: 75.0 mg/kg/injection, schedule: Q04DX003 (sc), vehicle: saline); 74 % of control under setting [1]; 61 % of control under setting [2].

As for `c1ccc2c(NCCCCCCCCNc3c4ccccc4nc4ccccc34)c3ccccc3nc2c1`, the T/C reads like this: (dose: 10.0 mg/kg/injection, schedule: Q01DX010 (sc), vehicle: Klucel (hydroxypropylcellulose) (HPC)) 93 % of control; (dose: 20.0 mg/kg/injection, schedule: Q01DX010 (sc), vehicle: Klucel (hydroxypropylcellulose) (HPC)) 16 % of control; (dose: 40.0 mg/kg/injection, schedule: Q01DX010 (sc), vehicle: Klucel (hydroxypropylcellulose) (HPC)) 93 % of control; (dose: 80.0 mg/kg/injection, schedule: Q01DX010 (sc), vehicle: Klucel (hydroxypropylcellulose) (HPC)) 58 % of control.

Turning to `CC(=O)Nc1ccc(S(=O)(=O)CO)cc1`, the T/C by setting is: under setting [3], 121 % of control; under setting [4], 85 % of control.

In the case of `CC(C)[NH-].CC(C)[NH-].[Cl][Pt+2][Cl]`, where the note is “dose: 300.0 mg/kg/injection, schedule: Q04DX003 (sc), vehicle: dextrose”, the T/C was 35 % of control.

Turning to `O=C[C@@H](CO)O[C@H](C=O)n1cnc2c(=O)[nH]cnc21`, the T/C under setting [5] was 41 % of control; the T/C under setting [6] is 39 % of control and 63 % of control; the T/C under setting [3] was 47 % of control.

Regarding `CCOC(=O)c1cn(C)c2c1C(O)=C(C(=O)OC)CC(=O)N2`, the T/C under setting [7] is 95 % of control, the T/C under setting [3] was 80 % of control, the T/C under setting [4] was 85 % of control and the T/C under setting [8] is 90 % of control.

In the case of `NC(=O)/C=C/C(=O)c1c(Cl)cccc1Cl`, the T/C reads like this: (dose: 9.0 mg/kg/injection, schedule: Q04DX003 (sc), vehicle: saline with Tween-80) 78 % of control; (dose: 36.0 mg/kg/injection, schedule: Q04DX003 (sc), vehicle: saline with Tween-80) 43 % of control.

Consider `COC(=O)NC1C(C)OC(OC2C/C=C(/C)C3C=CC4C(OC5CC(OC6CCC(OC7CC(O)C(OC8CCC(O)C(C)O8)C(C)O7)C(C)O6)C(OC(C)=O)C(C)O5)C(C)CC(C)C4C3(C)/C(O)=C3/C(=O)OC4(CC(C=O)=CC(O)C4/C=C\2C)C3=O)CC1(C)[N+](=O)[O-]` (centres undefined), for which the T/C reads like this: (dose: 25.0 mg/kg/injection, schedule: Q04DX003 (sc), vehicle: other) 95 % of control; (dose: 50.0 mg/kg/injection, schedule: Q04DX003 (sc), vehicle: other) 71 % of control.

Turning to `CC[C@@]1(O)C[C@H](OC2CC(N(C)C)C(OC3CC(O)C(OC4CCC(=O)C(C)O4)C(C)O3)C(C)O2)c2c(cc3c(c2O)C(=O)c2c(O)cccc2C3=O)[C@H]1C(=O)OC` (some centres undefined), the T/C by setting is: (dose: 0.25 mg/kg/injection, schedule: Q01DX010 (sc), vehicle: water) 91 % of control; (dose: 0.5 mg/kg/injection, schedule: Q01DX010 (ip), vehicle: water) 74 % of control and 78 % of control; (dose: 0.5 mg/kg/injection, schedule: Q01DX010 (sc), vehicle: water) 113 % of control; (dose: 1.0 mg/kg/injection, schedule: Q01DX010 (sc), vehicle: water) 35 % of control; (dose: 2.0 mg/kg/injection, schedule: Q01DX010 (ip), vehicle: water) 7 % of control; (dose: 4.0 mg/kg/injection, schedule: Q01DX010 (sc), vehicle: water) 65 % of control.

Consider `C=CCNc1nc2c(s1)CCc1cc(OC)c(OC)cc1-2`, for which the T/C under setting [3] was 92 % of control, the T/C under setting [4] is 96 % of control and the T/C under setting [8] was 80 % of control.

Regarding `Nc1ncn(C2OC(CO)C(O)C2O)c(=O)n1` (centres undefined), the T/C by setting is: (dose: 0.38 mg/kg/injection, schedule: Q01DX010 (sc), vehicle: saline) 69 % of control; (dose: 0.75 mg/kg/injection, schedule: Q01DX010 (sc), vehicle: saline) 58 % of control and 68 % of control; (dose: 1.5 mg/kg/injection, schedule: Q01DX010 (sc), vehicle: saline) 25 % of control; (dose: 2.5 mg/kg/injection, schedule: Q04DX003 (sc), vehicle: saline) 50 % of control; (dose: 20.0 mg/kg/injection, schedule: Q04DX003 (sc), vehicle: saline) 6 % of control and 14 % of control; under setting [1], 8 % of control. The T/C by setting is: (dose: 200.0 mg/kg/injection, schedule: Q04DX003 (sc), vehicle: saline) 52 % of control; (dose: 200.0 mg/kg/injection, schedule: Q04DX003 (sc), vehicle: suspension in saline) 5 % of control and 7 % of control; under setting [2], 7 % of control; (dose: 400.0 mg/kg/injection, schedule: Q04DX003 (sc), vehicle: saline) 15 % of control; (dose: 600.0 mg/kg/injection, schedule: Q04DX003 (sc), vehicle: saline) 2 % of control; (dose: 800.0 mg/kg/injection, schedule: Q04DX003 (sc), vehicle: saline) 5 % of control. Besides, the T/C is, setting by setting: (dose: 1200.0 mg/kg/injection, schedule: Q04DX003 (sc), vehicle: saline) -29 % of control; (dose: 1600.0 mg/kg/injection, schedule: Q04DX003 (sc), vehicle: saline) 2 % of control; (dose: 1600.0 mg/kg/injection, schedule: Q04DX003 (sc), vehicle: suspension in saline) 15 % of control.

With `O=[N+]([O-])c1ccc(N(CCO)CCO)c2c1no[n+]2[O-]`, the T/C (dose: 12.5 mg/kg/injection, schedule: Q04DX003 (ip), vehicle: saline with Tween-80) was 101 % of control; the T/C (dose: 25.0 mg/kg/injection, schedule: Q04DX003 (ip), vehicle: saline with Tween-80) was 108 % of control; the T/C (dose: 50.0 mg/kg/injection, schedule: Q04DX003 (ip), vehicle: saline with Tween-80) was 75 % of control.

Regarding `Nc1nc(N)c2c(Cl)c(CNc3ccc(Cl)c(Cl)c3)ccc2n1`, the T/C (dose: 18.75 mg/kg/injection, schedule: Q04DX003 (sc), vehicle: saline with Tween-80) was 80 % of control; the T/C (dose: 37.5 mg/kg/injection, schedule: Q04DX003 (sc), vehicle: saline with Tween-80) is 87 % of control; the T/C (dose: 75.0 mg/kg/injection, schedule: Q04DX003 (sc), vehicle: saline with Tween-80) was 93 % of control; the T/C under setting [7] is 111 % of control.

Take `OCC1OC(n2cnc3cncnc32)C(O)C1O` (centres undefined): the T/C (dose: 12.5 mg/kg/injection, schedule: Q04DX003 (sc), vehicle: saline) is 90 % of control; the T/C (dose: 25.0 mg/kg/injection, schedule: Q04DX003 (sc), vehicle: saline) was 106 % of control; the T/C (dose: 50.0 mg/kg/injection, schedule: Q04DX003 (sc), vehicle: saline) is 78 % of control.

As for `CC1(c2ccc(Cl)cc2)OC(=O)C(=Cc2ccc([N+](=O)[O-])s2)C(=O)O1` (centres undefined), the T/C runs as follows: under setting [3], 122 % of control; under setting [4], 44 % of control; under setting [8], 26 % of control.

`O=C(Nc1ccccc1C(=O)O)c1cc([N+](=O)[O-])cc([N+](=O)[O-])c1`: the T/C reads like this: under setting [5], 101 % of control; under setting [6], 120 % of control.

Regarding `COC1=C(OC)C(=O)C(C/C=C(\C)CC/C=C(\C)CC/C=C(\C)CC/C=C(\C)CC/C=C(\C)CC/C=C(\C)CC/C=C(\C)CC/C=C(\C)CC/C=C(\C)CCC=C(C)C)=C(C)C1=O`, the T/C runs as follows: (dose: 400.0 mg/kg/injection, schedule: Q01DX010 (sc), vehicle: saline with Tween-80) 153 % of control; (dose: 800.0 mg/kg/injection, schedule: Q01DX010 (sc), vehicle: saline with Tween-80) 118 % of control.

For `COC1/C=C/O[C@@]2(C)Oc3c(C)c(O)c4c(O)c(cc(O)c4c3C2=O)NC(=O)/C(C)=C\C=C\[C@H](C)C(O)[C@@H](C)[C@@H](O)[C@@H](C)[C@H](OC(C)=O)[C@@H]1C` (some centres undefined), the T/C is 153 % of control (dose: 600.0 mg/kg/injection, schedule: Q04DX003 (sc), vehicle: suspension in saline) and 150 % of control (dose: 2400.0 mg/kg/injection, schedule: Q04DX003 (sc), vehicle: suspension in saline).

Turning to `CCN(CC)CCCNc1nccc2c(C)c3[nH]c4ccncc4c3cc12`, the T/C is, setting by setting: (dose: 5.0 mg/kg/injection, schedule: Q01DX010 (sc), vehicle: other) 166 % of control; (dose: 10.0 mg/kg/injection, schedule: Q01DX010 (sc), vehicle: other) 88 % of control.
